In brackets after ≈: the same amount, converted by molar mass. Read-outs that look alike come from different tables or passages of the source.
Assays:
Assay in all cases: Antibacterial activity (MIC), agar dilution
Format in all cases: cell-based
[1] = test system: Kl. pneumoniae Y-4*; settings: Klebsiella pneumoniae, 20 h, Kl. pneumoniae Y-4, penicillinase-producing; 10^6 cells per ml; read-out: MIC
Text: (§1) The amount of bacteria inoculated was 10^4 cells per plate (10^6 cells per ml).
(§2) * Penicillinase-producing bacteria

[2] = test system: E. coli TK-3*; settings: Escherichia coli, 20 h
Text: as §1, §2

[3] = test system: St. aureus F-137*; settings: Staphylococcus aureus, 20 h
Text: as §1, §2

[4] = test system: Ps. aeruginosa GN3379*; settings: Pseudomonas aeruginosa, 20 h; Ps. aeruginosa GN3379, penicillinase-producing; 10^6 cells per ml; read-out: MIC
Text: as §1, §2

[5] = test system: Ps. aeruginosa GN918**; settings: Pseudomonas aeruginosa, 20 h; Ps. aeruginosa GN918, cephalospolinase-producing; 10^6 cells per ml; read-out: MIC
Text: as §1
(§3) ** Cephalospolinase-producing bacteria

[6] = test system: Pro. vulgaris GN76**; settings: Proteus vulgaris
Text: as §1, §3

[7] = test system: E. coli GN5482**; settings: Escherichia coli, 20 h; E. coli GN5482, cephalospolinase-producing; 10^6 cells per ml; read-out: MIC
Text: as §1, §3

[8] = test system: St. aureus FDA209P; settings: Staphylococcus aureus, FDA209P, 20 h
Text: as §1

[9] = test system: Pro. morganii T-216; settings: Morganella morganii, 37° C.
Text: as §1

[10] = test system: Kl. pneumoniae Y-41; settings: Klebsiella pneumoniae, Y41, 10^6 cells per ml, 37° C., 20 hours, read-out: MIC
Text: as §1

[11] = test system: E. coli TK-111; settings: Escherichia coli, TK111, 20 h, E. coli TK-111; 10^6 cells per ml; 37° C., 20 hours; read-out: MIC
Text: as §1

[12] = test system: Kl. pneumoniae Y-50; settings: Klebsiella pneumoniae, Y50, 20 h, 10^6 cells per ml, 37° C., read-out: MIC
Text: as §1

[13] = test system: Pro. mirabilis T-111; settings: Proteus mirabilis, 37° C.
Text: as §1

[14] = test system: Ps. aeruginosa IFO3445; settings: Pseudomonas aeruginosa; Ps. aeruginosa IFO3445; 10^6 cells per ml; 37° C., 20 hours; read-out: MIC
Text: as §1

[15] = test system: Ps. aeruginosa S-68; settings: Pseudomonas aeruginosa
Text: as §1

[16] = test system: E. coli NIHJ JC-2; settings: Escherichia coli, NIHJJC2, 20 h
Text: as §1

[17] = test system: Ent. cloacae IID977; settings: Enterobacter cloacae, IID977, 20 h
Text: as §1

[18] = test system: Pro. vulgaris GN3027; settings: Proteus vulgaris, GN3027, 20 h, Pro. vulgaris GN3027; 10^6 cells per ml; 37° C., 20 hours; read-out: MIC
Text: as §1

[19] = test system: Aci. antitratus A-6; settings: 20 h, Aci. antitratus A-6; 10^6 cells per ml; 37° C., 20 hours; read-out: MIC
Text: as §1

[20] = 20 h, Pro. vulgaris GN76, cephalospolinase-producing, 10^6 cells per ml, read-out: MIC
[21] = S68, Ps. aeruginosa S-68, 10^6 cells per ml, 37° C., 20 hours, read-out: MIC
[22] = E. coli NIHJ JC-2, 10^6 cells per ml, 37° C., 20 hours, read-out: MIC
[23] = E. coli TK-3, penicillinase-producing, 10^6 cells per ml, read-out: MIC
[24] = St. aureus FDA209P, 10^6 cells per ml, 37° C., 20 hours, read-out: MIC
[25] = T216, 10^6 cells per ml, 20 hours, read-out: MIC
[26] = St. aureus F-137, penicillinase-producing, 10^6 cells per ml, read-out: MIC
[27] = T111, 10^6 cells per ml, 20 hours, read-out: MIC
[28] = Ent. cloacae IID977, 10^6 cells per ml, 37° C., 20 hours, read-out: MIC

Row | SMILES | MIC [1] [µg/mL] | MIC [2] [µg/mL] | MIC [3] [µg/mL] | MIC [4] [µg/mL] | MIC [5] [µg/mL] | MIC [7] [µg/mL] | MIC [8] [µg/mL] | MIC [10] [µg/mL] | MIC [11] [µg/mL] | MIC [12] [µg/mL] | MIC ([13]; T111, 20 h, 10^6 cells per ml) [µg/mL] | MIC [14] [µg/mL] | MIC [15, 21] [µg/mL] | MIC [16, 22] [µg/mL] | MIC [17] [µg/mL] | MIC [18] [µg/mL] | MIC [19] [µg/mL] | MIC [2, 23] [µg/mL] | MIC ([6]; GN76, 20 h) [µg/mL] | MIC [9, 25] [µg/mL] | also measured
1 | Cc1ccc(-c2cc(=O)c(C(=O)O)cn2-c2ccc(F)cc2)s1 | 12.5 (≈ 38 µM) | 3.13 (≈ 9.5 µM) | 3.13 (≈ 9.5 µM) | 25 (≈ 75.9 µM) | 50 (≈ 152 µM) | 0.2 (≈ 0.607 µM) | 3.13 (≈ 9.5 µM) | 6.25 (≈ 19 µM) | 0.78 (≈ 2.37 µM) | 3.13 (≈ 9.5 µM) | 6.25 (≈ 19 µM) | 50 (≈ 152 µM) | 25 (≈ 75.9 µM) | 1.56 (≈ 4.74 µM) | 3.13 (≈ 9.5 µM) | 0.2 (≈ 0.607 µM) | 1.56 (≈ 4.74 µM) | – | – | – | MIC [6, 20]: 1.56 µg/mL (≈ 4.74 µM); MIC ([9]; T216, 20 h, 10^6 cells per ml): 3.13 µg/mL (≈ 9.5 µM)
2 | O=C(O)c1cn(-c2ccc(F)cc2)c(-c2ccc(Br)s2)cc1=O | 25 (≈ 63.4 µM) | – | 3.13 (≈ 7.94 µM) | 25 (≈ 63.4 µM) | 100 (≈ 254 µM) | 0.39 (≈ 0.989 µM) | – | 12.5 (≈ 31.7 µM) | 1.56 (≈ 3.96 µM) | 3.13 (≈ 7.94 µM) | 12.5 (≈ 31.7 µM) | 50 (≈ 127 µM) | 25 (≈ 63.4 µM) | – | 12.5 (≈ 31.7 µM) | 0.39 (≈ 0.989 µM) | 1.56 (≈ 3.96 µM) | 6.25 (≈ 15.9 µM) | 3.13 (≈ 7.94 µM) | 6.25 (≈ 15.9 µM) | MIC [8, 24]: 1.56 µg/mL (≈ 3.96 µM); MIC [16]: 3.13 µg/mL (≈ 7.94 µM)
3 | CN(C)c1ccc(-c2cc(=O)c(C(=O)O)cn2-c2ccccc2F)cc1 | 25 (≈ 70.9 µM) | 3.13 (≈ 8.88 µM) | – | > 100 | > 100 | 0.39 (≈ 1.11 µM) | – | 6.25 (≈ 17.7 µM) | 0.78 (≈ 2.21 µM) | 3.13 (≈ 8.88 µM) | – | > 100 | 25 (≈ 70.9 µM) | 1.56 (≈ 4.43 µM) | 6.25 (≈ 17.7 µM) | 0.78 (≈ 2.21 µM) | 1.56 (≈ 4.43 µM) | – | 3.13 (≈ 8.88 µM) | – | MIC [3, 26]: 1.56 µg/mL (≈ 4.43 µM); MIC [8, 24]: 1.56 µg/mL (≈ 4.43 µM); MIC ([9]; T216, 20 h, 10^6 cells per ml): 6.25 µg/mL (≈ 17.7 µM); MIC [13, 27]: 25 µg/mL (≈ 70.9 µM)
4 | O=C(O)c1cn(-c2ccc(F)cc2)c(-c2ccc(Cl)s2)cc1=O | 25 (≈ 71.5 µM) | – | 3.13 (≈ 8.95 µM) | 25 (≈ 71.5 µM) | 100 (≈ 286 µM) | 0.39 (≈ 1.12 µM) | 3.13 (≈ 8.95 µM) | 12.5 (≈ 35.7 µM) | 1.56 (≈ 4.46 µM) | 3.13 (≈ 8.95 µM) | 12.5 (≈ 35.7 µM) | 50 (≈ 143 µM) | 25 (≈ 71.5 µM) | – | 12.5 (≈ 35.7 µM) | 0.39 (≈ 1.12 µM) | 1.56 (≈ 4.46 µM) | 6.25 (≈ 17.9 µM) | 3.13 (≈ 8.95 µM) | 6.25 (≈ 17.9 µM) | MIC [16]: 3.13 µg/mL (≈ 8.95 µM)
5 | COc1ccc(-c2cc(=O)c(C(=O)O)cn2-c2ccc(F)cc2)cc1 | 12.5 (≈ 36.8 µM) | 3.13 (≈ 9.22 µM) | 3.13 (≈ 9.22 µM) | 25 (≈ 73.7 µM) | 50 (≈ 147 µM) | 0.2 (≈ 0.589 µM) | 3.13 (≈ 9.22 µM) | 12.5 (≈ 36.8 µM) | 0.78 (≈ 2.3 µM) | 3.13 (≈ 9.22 µM) | 12.5 (≈ 36.8 µM) | 25 (≈ 73.7 µM) | 25 (≈ 73.7 µM) | 1.56 (≈ 4.6 µM) | – | 0.39 (≈ 1.15 µM) | 1.56 (≈ 4.6 µM) | – | 3.13 (≈ 9.22 µM) | 6.25 (≈ 18.4 µM) | MIC [17, 28]: 6.25 µg/mL (≈ 18.4 µM)
6 | CNc1ccc(-c2cc(=O)c(C(=O)O)cn2-c2ccc(F)cc2)cc1C | 12.5 (≈ 35.5 µM) | – | – | 25 (≈ 70.9 µM) | 50 (≈ 142 µM) | 0.2 (≈ 0.568 µM) | 1.56 (≈ 4.43 µM) | 6.25 (≈ 17.7 µM) | 0.39 (≈ 1.11 µM) | 1.56 (≈ 4.43 µM) | 12.5 (≈ 35.5 µM) | 50 (≈ 142 µM) | – | – | 6.25 (≈ 17.7 µM) | 0.78 (≈ 2.21 µM) | 0.78 (≈ 2.21 µM) | 3.13 (≈ 8.88 µM) | – | – | MIC [3, 26]: 0.78 µg/mL (≈ 2.21 µM); MIC [6, 20]: 3.13 µg/mL (≈ 8.88 µM); MIC ([9]; T216, 20 h, 10^6 cells per ml): 6.25 µg/mL (≈ 17.7 µM); MIC ([15]; S68, 20 h): 12.5 µg/mL (≈ 35.5 µM); MIC [16]: 1.56 µg/mL (≈ 4.43 µM)
7 | CN(C)c1ccc(-c2cc(=O)c(C(=O)O)cn2-c2ccc(F)cc2F)cc1 | 6.25 (≈ 16.9 µM) | – | – | 25 (≈ 67.5 µM) | 12.5 (≈ 33.8 µM) | 0.1 (≈ 0.27 µM) | – | 6.25 (≈ 16.9 µM) | 0.2 (≈ 0.54 µM) | 0.78 (≈ 2.11 µM) | – | 12.5 (≈ 33.8 µM) | 12.5 (≈ 33.8 µM) | 0.78 (≈ 2.11 µM) | – | 0.2 (≈ 0.54 µM) | 0.39 (≈ 1.05 µM) | 3.13 (≈ 8.45 µM) | – | 3.13 (≈ 8.45 µM) | MIC [3, 26]: 0.1 µg/mL (≈ 0.27 µM); MIC [6, 20]: 0.78 µg/mL (≈ 2.11 µM); MIC [8, 24]: 0.2 µg/mL (≈ 0.54 µM); MIC [13, 27]: 3.13 µg/mL (≈ 8.45 µM); MIC [17, 28]: 3.13 µg/mL (≈ 8.45 µM)

Source: US4698352A, “4-oxo-1,4-dihydronicotinic acid derivatives, salts thereof, and antibacterial agents containing the same” (Toyama Chemical Co., Ltd., priority 1982, dated 1987)
